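Five concentrations, 48 hours, 96-well plates. TGI denotes the concentration required for complete inhibition of growth.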
Experiments:
Assay in all cases: DTP human tumour cell line panel, 48 h
[1] = system: DU-145 prostate
[2] = system: HOP-92 NSCLC
[3] = system: SF-268 CNS
[4] = system: NCI/ADR-RES ovarian
[5] = system: SN12C renal
[6] = system: A549 NSCLC
[7] = system: IGROV1 ovarian
[8] = system: HCC-2998 colon
[9] = system: UACC-62 melanoma
[10] = system: EKVX NSCLC
[11] = system: SW-620 colon
[12] = system: UO-31 renal
[13] = system: HCT-116 colon
[14] = system: 786-0 renal
[15] = system: K-562 leukemia
[16] = system: U251 CNS
[17] = system: COLO 205 colon
[18] = system: OVCAR-8 ovarian
[19] = system: SK-MEL-28 melanoma
[20] = system: SF-295 CNS

Compound	TGI [1]	TGI [2]	TGI [3]	TGI [4]	TGI [5]	TGI [6]	TGI [7]	TGI [8]	TGI [9]	TGI [10]	TGI [11]	TGI [12]	TGI [13]	TGI [14]	TGI [15]	TGI [16]	TGI [17]	TGI [18]	TGI [19]	TGI [20]
O=C(N[C@@H](c1ccccc1)[C@@H](O)C(=O)OCc1ccc([N+](=O)[O-])cc1)c1ccccc1	> 100 µM	> 100 µM	> 100 µM	> 100 µM	> 100 µM	> 100 µM	> 100 µM	> 100 µM	> 100 µM	> 100 µM	> 100 µM	> 100 µM	> 100 µM	> 100 µM	> 100 µM	> 100 µM	> 100 µM	> 100 µM	–	–
CC1(C)CC(=O)C(C=NC(=O)c2ccncc2)=C(O)C1	> 100 µM	> 100 µM	> 100 µM	> 100 µM	> 100 µM	> 100 µM	> 100 µM	> 100 µM	> 100 µM	> 100 µM	> 100 µM	> 100 µM	> 100 µM	> 100 µM	–	> 100 µM	> 100 µM	> 100 µM	> 100 µM	> 100 µM
O=C1NC(=O)C(c2c[nH]c3ccccc23)=C1c1cn(C(c2ccccc2)(c2ccccc2)c2ccccc2)cn1	63.5 µM	21.9 µM	33.2 µM	22 µM	20.3 µM	12.8 µM	26.2 µM	16 µM	30.1 µM	19.4 µM	30 µM	–	13.1 µM	22.3 µM	28.7 µM	15.3 µM	15 µM	28.2 µM	44.9 µM	19.8 µM
c1ccc(NN=C(c2ccccn2)c2ccccn2)nc1	> 100 µM	> 100 µM	> 100 µM	5.05 µM	> 100 µM	> 21 µM	> 100 µM	> 100 µM	–	> 100 µM	> 100 µM	0.513 µM	> 100 µM	> 100 µM	> 100 µM	> 61.9 µM	> 100 µM	> 100 µM	> 100 µM	> 100 µM
Nc1nc(Cl)c(N)c(NCC2(CO)CCCC2)n1	> 100 µM	> 100 µM	> 100 µM	> 100 µM	> 100 µM	> 100 µM	> 100 µM	> 100 µM	7.44 µM	> 100 µM	> 100 µM	> 100 µM	> 100 µM	> 100 µM	> 100 µM	> 100 µM	–	> 100 µM	> 100 µM	> 100 µM
O=C(NCCCl)N(O)C(=O)Nc1ccccc1	> 100 µM	> 100 µM	> 100 µM	> 100 µM	> 100 µM	> 100 µM	> 100 µM	> 100 µM	> 100 µM	> 100 µM	> 100 µM	> 100 µM	> 100 µM	> 100 µM	> 100 µM	> 100 µM	> 100 µM	> 100 µM	–	> 100 µM
Fc1ccc(C(=C2CCN(CCc3ccc4[nH]c(=S)[nH]c4c3)CC2)c2ccc(F)cc2)cc1	8.91 µM	8.51 µM	25.9 µM	37.3 µM	9.25 µM	> 40.5 µM	17 µM	–	19 µM	9.04 µM	> 100 µM	5.11 µM	3.47 µM	3.61 µM	> 100 µM	11.3 µM	3.31 µM	8.26 µM	2.63 µM	18.8 µM
O=C(O)c1nc2ccc(C(F)(F)F)cc2nc1NCc1ccc(F)cc1	> 100 µM	45.3 µM	–	> 100 µM	35.4 µM	42.2 µM	> 100 µM	65.6 µM	35.1 µM	68.3 µM	> 100 µM	7.39 µM	29.4 µM	28 µM	55.6 µM	56.9 µM	44.6 µM	55.7 µM	> 100 µM	81.1 µM
O=C1c2cccc3cccc(c23)C(=O)N1CCCNCCCNCCCCNCCCNCCCN1C(=O)c2cccc3cccc(c23)C1=O	14 µM	22 µM	12.9 µM	46.8 µM	16.4 µM	12.9 µM	24.5 µM	16.8 µM	12.3 µM	22 µM	14.9 µM	30.4 µM	8.17 µM	6.12 µM	16.5 µM	20.2 µM	–	40 µM	9 µM	24.4 µM
CC1C[C@]2(C)C(=NCCN)Nc3ccccc3[C@@H]2N(C)c2ccccc21 (some centres not stated)	28.7 µM	9.49 µM	30.4 µM	59 µM	28.4 µM	31.6 µM	27.6 µM	9.69 µM	28.1 µM	33 µM	35.9 µM	23.2 µM	21 µM	24.6 µM	40.2 µM	–	5.14 µM	27.9 µM	24.3 µM	32 µM
O=S1(=O)Cc2ccc3c4c2-c2c(ccc5ccc(c-4c25)CS(=O)(=O)C3)C1	> 100 µM	> 100 µM	> 100 µM	> 100 µM	> 100 µM	> 100 µM	> 100 µM	> 100 µM	> 100 µM	> 100 µM	> 100 µM	> 100 µM	> 100 µM	> 100 µM	> 100 µM	> 100 µM	–	> 100 µM	> 100 µM	> 100 µM
COc1ccc(NC(=O)N(C)CC2(O)CCC(C(C)(C)C)CC2)cc1 (configuration not stated)	> 100 µM	90.4 µM	> 100 µM	> 100 µM	> 100 µM	> 100 µM	> 100 µM	–	97.3 µM	> 100 µM	> 100 µM	> 100 µM	> 100 µM	> 100 µM	> 100 µM	> 100 µM	> 100 µM	> 100 µM	> 100 µM	91.7 µM

Source: PubChem BioAssay (NCI)
